Reference: patent publication US20070087977A1, “METHODS AND COMPOSITIONS FOR TREATING PAIN” (priority 2004, published 2007)
Like-named read-outs stand apart in the source and are kept apart here.

Legend:
[1] = system: mdr1a (P-gP) knockout mouse; conditions: same doses, cited from earlier work
[2] = system: Healthy subjects undergoing third molar removal; test: Quercetin ameliorates CNS effects of oxycodone in an acute pain model (third molar removal); format: in vivo, human
Protocol: Opioids frequently produce adverse CNS side effects in ambulatory settings, providing a rationale for improving opioid analgesia by minimizing adverse effects. […] Healthy subjects (N=65) undergoing third molar removal are randomly allocated to receive 500 mg oral quercetin or matching placebo at 1 hr prior to surgery. […] Total Nausea and Vomiting Score (TNVS) is calculated for the time from dosing through 24 hr.

[3] = system: adult subjects with chronic pain; test: Human study of the effects of oral quercetin (Q) and analgesics on sedation, concentration and pain; format: in vivo
Protocol: An empiric trial on the effects of oral quercetin (Q) on sedation, concentration, and pain was conducted. Inclusion criteria included ongoing pain of at least 4/10 on the Likert scale, poor tolerance of current analgesic regimen (complaints of sedation, dizziness, inability to focus), and willingness to complete daily diaries.
Approximately 16 adult subjects with chronic pain were screened and 9 subjects were admitted to the trial. Their pain disorders included peripheral neuropathy (2), facial pain (2), cervical radiculopathy (2), lumbar spine disease (3). Their pre-existing medications included short acting opioids (Vicodin TID, Tramadol 50 mg Q4-6), high dose, long acting opioids (OxyContin 240 mg, Methadone 400 mg), Gabapentin (900 mg and 2700 mg), Ativan, Flexeril, and Soma 350 mg. Seven of the subjects were using at least two analgesic medications. Two subjects were using no current medications because of prior histories of sedation and dizziness during opioid trials.
Q (Sigma) 500 mg per gel capsule was compounded and supplied to all subjects by overnight mail. Subjects were instructed to complete daily diaries for 7 days and continue their baseline medications and regular activities. On approximately the 7th day, they were asked to begin twice daily dosing of 2 Q (1000 mg) capsules (total daily dose of Q, 2000 mg). Diaries were completed for 7 days. Individual diaries included rating sleep interference, focus, pain now, and worst pain over the prior 24 hours. Subjects were instructed that concomitant pain medications should not be altered without speaking with the investigator. Subjects were advised that they would be contacted by telephone every day or every other day to assess progress in the trial and any side effects associated with the addition of Q. At the end of the trial, patients were interviewed. They were asked to rate their satisfaction with the study medication (−2-+2) and its ability to modulate the CNS effects of their pain medications.

Row | Structure (SMILES) | sensitivity to fetal cleft palate ([1]; heterozygous (+/-) mice) | sensitivity to fetal cleft palate ([1]; homozygous (+/+) mice) | median time to request for a second analgesic ([2]; 500 mg oral quercetin + 10 mg oral oxycodone) [min] | mean pain intensity ([2]; 500 mg oral quercetin + 10 mg oral oxycodone, compared with placebo group) | oxycodone plasma concentrations, quercetin vs placebo group ([2]; prior to surgery, at 1 hr, at 4 hr) | sleep rating (1 perfect sleep, 10 worst) ([3]; after taking Q, all patients, FIG. 5) | concentration rating (1 perfect concentration, 10 worst) ([3]; after taking Q, all patients, FIG. 6) | worst pain in the last 24 hrs (NPRS, 1 no pain, 10 worst) ([3]; after taking Q, all patients, FIG. 7) | pain at the time the patients were called (pain now) ([3]; after taking Q, all patients, FIG. 8) | global assessment (scale of -2 to 2) ([3]; all patients on opiate or MSD and modulator (Q), FIG. 15) | CNS activation noted ([3]; opioid users taking Q) | central withdrawal noted (number of opioid users) ([3]; opioid users taking Q) | number of patients reporting 2 in global assessment ([3]; scale of -2 to 2, FIG. 15) | number of patients reporting -2 in global assessment ([3]; scale of -2 to 2, FIG. 15) | pain on the scale from 1-10 (worst pain in last 24 hrs, pain at time of call) ([3]; two patients not on baseline meds, poor tolerance of systemic medications, FIGS. 13 and 14)
1 | CC[C@H](C)[C@H]1O[C@]2(C=C[C@@H]1C)C[C@@H]1C[C@@H](C/C=C(\C)[C@@H](O[C@H]3C[C@H](OC)[C@@H](O[C@H]4C[C@H](OC)[C@@H](O)[C@H](C)O4)[C@H](C)O3)[C@@H](C)/C=C/C=C3\CO[C@@H]4[C@H](O)C(C)=C[C@@H](C(=O)O1)[C@]34O)O2 [avermectin] | less sensitive | insensitive |  |  |  |  |  |  |  |  |  |  |  |  | 
2 | O=c1c(O)c(-c2ccc(O)c(O)c2)oc2cc(O)cc(O)c12 [quercetin] |  |  | 120 | consistently lower | do not differ | overall improvement | overall improvement | overall improvement | overall improvement | overall improvement in their condition | all the 4 opioid users | 3 | three | none | brought the pain down
